# Measurements as given in publication PMC11022729 (Advanced Science, 2024).
# Assays:
# [1] = system: Slack−/− mice; experiment: Chloroquine-induced itch behavior, Slack knockout mice; assay type: in vivo, mouse
# Method: We then assessed the antipruritic efficacy of compound 6 in a model of histamine‐independent itching induced by the antimalarial drug chloroquine.
# Three to four days before the day of the experiment, the fur on the dorsolateral aspect of the neck was shaved under brief isoflurane anesthesia. On the testing day, the mice were habituated to a Plexiglas cylinder (30 cm in diameter) for 30 min. Compound 6 hydrochloride or vehicle were i.p. or p.o. administered, and 15 min later, the pruritogens chloroquine (200 µg), SLIGRL (100 µg), β‐alanine (100 µg), or histamine (800 µg), all dissolved in 0.9% saline (20 µL), were injected subcutaneously into the nape of the neck.^[ [29] ^] Number of scratching bouts directed toward the nape of the neck was assessed over 30 min by videotaping. In experiments with the Slack inhibitor, compound 31 (ref. [27]; 30 mg kg^−1 in 0.9% NaCl with 2% DMSO and 10% Kolliphor) was i.p. administered 5 min prior to compound 6.
# [2] = molecular target: T1, purified human Slack (Homo sapiens, UniProt Q5JUK3); experiment: Differential scanning fluorimetry (DSF) on purified Slack; assay type: binding; settings: 100 µM ligand concentration; for melting temperature Tm of Slack: Tm without ligand 30 °C
# T1 construct: NM_02 0822.3, residues 1–1235; green fluorescent protein (GFP) (C, cleaved yes); twin strep-II-tag (C, cleaved yes); made in house; host or cells: HEK293F cells, transient transfection
# T1 sequence (Q5JUK3 1-1235 isoform Q5JUK3-3): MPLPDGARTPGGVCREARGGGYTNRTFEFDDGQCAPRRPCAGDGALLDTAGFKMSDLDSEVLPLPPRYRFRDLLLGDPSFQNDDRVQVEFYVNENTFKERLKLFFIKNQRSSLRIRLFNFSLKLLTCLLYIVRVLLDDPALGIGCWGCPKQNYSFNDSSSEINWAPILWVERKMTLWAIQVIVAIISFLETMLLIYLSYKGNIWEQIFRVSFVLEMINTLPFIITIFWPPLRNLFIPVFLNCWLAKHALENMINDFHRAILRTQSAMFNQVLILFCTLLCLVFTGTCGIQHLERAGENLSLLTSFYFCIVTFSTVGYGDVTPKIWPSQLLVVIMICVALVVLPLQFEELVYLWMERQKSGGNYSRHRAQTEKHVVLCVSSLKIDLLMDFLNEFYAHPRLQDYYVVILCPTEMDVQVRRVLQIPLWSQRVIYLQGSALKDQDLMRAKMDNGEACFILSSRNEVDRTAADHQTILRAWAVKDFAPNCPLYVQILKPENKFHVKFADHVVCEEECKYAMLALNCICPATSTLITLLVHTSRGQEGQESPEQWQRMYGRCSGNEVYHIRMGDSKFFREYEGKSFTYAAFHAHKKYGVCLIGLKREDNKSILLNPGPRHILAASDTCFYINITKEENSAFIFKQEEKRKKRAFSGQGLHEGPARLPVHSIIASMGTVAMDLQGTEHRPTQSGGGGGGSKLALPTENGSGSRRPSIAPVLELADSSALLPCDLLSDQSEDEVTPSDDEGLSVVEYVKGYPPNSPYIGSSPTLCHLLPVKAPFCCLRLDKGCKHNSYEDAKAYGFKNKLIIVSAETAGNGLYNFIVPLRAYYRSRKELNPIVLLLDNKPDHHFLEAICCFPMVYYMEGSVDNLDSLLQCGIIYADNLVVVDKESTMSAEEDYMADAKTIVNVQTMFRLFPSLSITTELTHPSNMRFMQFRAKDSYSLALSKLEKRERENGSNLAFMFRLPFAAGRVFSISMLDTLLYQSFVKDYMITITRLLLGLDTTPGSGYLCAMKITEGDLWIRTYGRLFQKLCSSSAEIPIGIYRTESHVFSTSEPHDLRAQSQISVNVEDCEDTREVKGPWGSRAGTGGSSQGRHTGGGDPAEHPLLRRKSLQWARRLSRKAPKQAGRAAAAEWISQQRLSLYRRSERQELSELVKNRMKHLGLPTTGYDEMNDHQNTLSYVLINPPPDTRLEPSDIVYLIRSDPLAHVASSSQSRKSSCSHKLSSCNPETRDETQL
# Method: To confirm that the cellular effect of compound 6 was mediated by its direct interaction with Slack, ligand binding on purified human Slack (Figure S6A, Supporting Information) was assessed by differential scanning fluorimetry (DSF), thereby evaluating a ligand‐dependent shift of the protein melting temperature (T m). The cysteine‐reacting dye 7‐diethylamino‐3‐(4‐maleimidophenyl)−4‐methylcoumarin (CPM), which binds to cysteine residues that are accessible during protein unfolding, was used as an indicator for protein unfolding. […] In the presence of a Slack inhibitor (compound 31 from ref. [27]), known to directly interact with the protein and therefore used as a positive control, T m saturated at 45.7 ± 3.2 °C at a ligand concentration of 100 µM (Figure S6B, Supporting Information), indicating a notable stabilization of Slack.
# The melting temperature was determined from the fluorescence of 7‐diethylamino‐3‐(4‐maleimidophenyl)−4‐methylcoumarin (CPM) dye. […] Five microliters of the CPM dye (15 µg mL^−1 CPM final concentration) in the SEC buffer was added to the protein compound mixture and further incubated for 30 min on ice in the dark. The samples were centrifuged at 15 000 × g at 4 °C for 10 min to remove aggregates. Melting curves were recorded in an RT‐PCR (Thermo Fischer) using a temperature range of 10–80 °C in 1 °C‐increments, increasing every 75 s. The CPM dye was excited at a wavelength of 365 nm and the emission was measured at 470 nm.
Structure (SMILES),"chloroquine-induced scratching behavior ([1]; Slack knockout mice, systemic low dose, preliminary experiments)",increase in Tm [2],melting temperature Tm of Slack [2],"chloroquine-induced scratching ([1]; Slack−/− mice, i.p.)"
"CN1CCN(C2=Nc3ccccc3Oc3ccc(Cl)cc32)CC1 [Loxapine, reference compound]",did not affect,7.8 °C,37.8 ± 1.3 °C,–
O=C(O)COCCN1CCN(C2=Nc3ccccc3Oc3ccc(Cl)cc32)CC1 [Compound 6],–,9.3 °C,39.3 ± 0.9 °C,did not significantly alter
